How the values were obtained:
[1] = test system: Arabidopsis T1 plants transformed with 24DT22 nucleotide sequence, control nucleotide sequence and wild-type Arabidopsis plants; test: Herbicide resistance effect test of transgenic Arabidopsis T1 plants (spraying); type: in vivo, Arabidopsis thaliana; settings: Arabidopsis genotype 24DT22; for High resistant (number of plants): 560 g ae/ha (1-fold field concentration), growth consistent with blank solvent 7 days after spraying; for Moderate resistant (number of plants): curly rosette leaves 7 days after spraying; for Low resistant (number of plants): incapable of bolting 14 days after spraying
From the text: 24DT22 gene was used to transform Arabidopsis for the first time. At first, T1 transformants were selected from the background of un-transformed seeds, using glufosinate-ammonium selection scheme. About 20000 T1 seeds are screened among which 314 strains of T1 generation positive transformants (PAT gene) were identified, i.e. the transformation efficiency was about 1.6%. Herbicide resistance effect tests to 2,4-D dimethyl ammonium salt and agroxone of Arabidopsis T1 plants transformed with 24DT22 nucleotide sequence, control nucleotide sequence respectively and wild-type Arabidopsis plants were performed after 18 days of planting.
Arabidopsis T1 plants transformed with 24DT22 nucleotide sequence, control nucleotide sequence respectively and wild-type Arabidopsis plants were sprayed with 2,4-D dimethyl ammonium salt (560 g ae/ha, 1-fold concentration in field), agroxone (560 g ae/ha, 1-fold concentration in field) and blank solvent (water). Resistance conditions of the plants were counted 7 days and 14 days after spraying. Plants with growth conditions consistent with blank solvent (water) 7 days after spaying were classified as highly resistant plants; Plants with curly rosette leaves 7 days after spaying were classified as moderately resistant plants; Plants incapable of bolting 14 days after spaying were classified as low-resistant plants and the dead plants 14 days after spaying were classified as non-resistant plants. Because each Arabidopsis T1 plant is an independent transformation event, significant differences of individual T1 responses can be expected under a given dose.

[2] = test system: Soybean plants containing 24DT22 nucleotide sequence, control nucleotide sequence and wild type soybean plants; test: Herbicide resistance effect test of transgenic soybean T1 plants (spraying, damage degree); type: in vivo, soybean (Zhonghuang 13); settings: for Average damage % 6HAT: 6 hours after spraying; for Average damage % 2DAT: 2 days after spraying
Description: Herbicide resistance effects tests to 2,4-D dimethyl ammonium salt and agroxone of soybean plants containing 24DT22 nucleotide sequence and control nucleotide sequence respectively and wild type soybean plants (stages V3-V4) were performed respectively.
Soybean plants containing 24DT22 nucleotide sequence, control nucleotide sequence and wild type soybean plants were taken and spayed with 2,4-D dimethyl ammonium salt (2240 g ae/ha, four-folds concentration in field), agroxone (2240 g ae/ha, four-folds concentration in field) and blank solvent (water). Take statistics of the damage degree of each plant caused by herbicides according to the curling degree of leaves and the damage degree of growing point six hours ([…]), two days (2DAT), seven days (7DAT) and 14 days (14DAT) after spraying respectively: if leaves are flat like wild-type leaves and the growing point is intact, the damage degree is 0%; if leaves curl up and wilt and the growing point is died, the damage degree is 100%. There are three strains contained a transferred 24DT22 nucleotide sequence (S1, S2 and S3), two strains contained a transferred control sequence (S4 and S5) and one wild-type strain (CK1) in total; select 10-15 plants from each strain for testing.

[3] = test system: Corn plants containing 24DT22 nucleotide sequence, control nucleotide sequence and wild type corn plants; test: Herbicide-resistance effect test of transgenic corn T1 plants (prop/brace root development); type: in vivo, corn (Zong 31); settings: 21 days after spraying
Description: Herbicide resistance effects tests to 2,4-D dimethyl ammonium salt and agroxone of corn plants containing 24DT22 nucleotide sequence, control nucleotide sequence respectively and wild type corn plants (stages V3-V4) were performed respectively.
Corn plants containing 24DT22 nucleotide sequence, control nucleotide sequence respectively and wild type corn plants were taken and spayed with 2,4-D dimethyl ammonium salt (8960 g ae/ha, 16-folds concentration in field), agroxone (8960 g ae/ha, 16-folds concentration in field) and blank solvent (water) respectively. Prop root development was counted 21 days after spaying. Three strains (S6, S7 and S8) of corn plants transformed with 24DT22 nucleotide sequence, two strains (S9 and S10) of corn plants transformed with control nucleotide sequence and 1 strain of wild type (CK2) corn were selected and 10-15 plants from each stain were tested.

[4] = soybean strain S1 (24DT22), 2240 g ae/ha (4-fold field concentration)
[5] = soybean strain S2 (24DT22), 2240 g ae/ha
[6] = soybean strain S3 (24DT22), 2240 g ae/ha
[7] = corn strain S8 (24DT22), 8960 g ae/ha

Structure (SMILES) | High resistant (number of plants) [1] | Moderate resistant (number of plants) ([1]; 560 g ae/ha) | Non-resistant (number of plants) ([1]; 560 g ae/ha, dead 14 days after spraying) | Low resistant (number of plants) ([1]; 560 g ae/ha) | Average damage % 6HAT [2, 4] [%] | Average damage % 6HAT [2, 5] [%] | Average damage % 6HAT [2, 6] [%] | Average damage % 2DAT [2, 6] [%] | Abnormal development of brace roots (number of plants) ([3]; corn strain CK2 (wild type), 8960 g ae/ha) | Normal development of brace roots (number of plants) [3, 7] | Average damage % 2DAT [2, 5] [%] | Average damage % 7DAT ([2]; soybean strain S2 (24DT22), 2240 g ae/ha, 7 days after spraying) [%] | Normal development of brace roots (number of plants) ([3]; corn strain S6 (24DT22), 8960 g ae/ha (16-fold field concentration)) | Normal development of brace roots (number of plants) ([3]; corn strain S7 (24DT22), 8960 g ae/ha) | Abnormal development of brace roots (number of plants) ([3]; corn strain S10 (control sequence), 8960 g ae/ha)
CNC.O=C(O)COc1ccc(Cl)cc1Cl [2,4-D dimethyl ammonium salt] | 28 | 1 | 0 | 2 | 6 | 11 | 3 | 0 | 15 | 10 | – | – | – | – | –
Cc1cc(Cl)ccc1OCC(=O)O [agroxone] | 25 | 3 | – | 1 | 10 | 16 | 7 | 4 | – | 13 | 11 | 6 | 13 | 14 | 11

From patent US10655140B2, “Herbicide-resistant protein, encoding gene and use thereof” (BEIJING DABEINONG BIOTECHNOLOGY CO., LTD., priority 2015, dated 2020)
